Measurements published in patent US5783556A, “Formulated insulin-containing composition” (Genentech, Inc., priority 1996, dated 1998).

Legend:
patients with IDDM [1] = experiment: Safety assessments in the IDDM clinical study (hypoglycemia, laboratory profiles, body weight); type: in vivo, human
Procedure: The primary safety laboratory evaluations were serum biochemical and thyroid profiles, CBC, urinalysis, 24-hour urinary albumin excretion rate and creatinine clearance. Hypoglycemia was defined by a BG level equal to or lower than 50 mg/dL with or without symptomatology. This definition of hypoglycemia was used for purposes of statistical analysis.
Patients with at least two weeks of post randomization data were included in the analysis. […] The data are summarized by mean±SE for each group. Comparisons between the two groups were performed using the Wilcoxon rank sum test for continuous variables and Fisher's exact test for discrete data. All tests were two-tailed and a p-value less than or equal to 0.05 was considered statistically significant.

[2] = Plasma total and free IGF-I levels in the IDDM clinical study; type: in vivo, human; settings: 2-4 hours after rhIGF-I injection
Source text: At the end of the lead-in period the patients were randomized to administer either rhIGF-I or placebo as an additional injection immediately before their morning insulin injections. Patients were allocated using an adaptive randomization procedure that stratified based on Tanner stage and the glycosylated hemoglobin value on day -28 of the lead-in period. A seven-day window period was allowed between day -1 of the lead-in period and day 1 of the treatment period. The subjects were admitted to the hospital the afternoon preceding day 1 of treatment and received their usual insulin dose and diet. On day 1, an IV cannula was inserted into the distal forearm or antecubital fossa. A single dose of rhIGF-I (80 μg/kg) or placebo was administered SC, followed by a SC insulin injection and breakfast. The dosing of IGF-I in the morning was for safety reasons. On day 1, the a.m. regular insulin dose was reduced by 1/3in both groups as a precaution against the development of hypoglycemia. Blood samples were obtained for future assay every 15 minutes for the next 3 hours. […]
Plasma levels of GH, IGF-I, free IGF-I, IGF-II, IGFBP-1, IGFBP-2, and IGFBP-3 were measured. […] Total plasma IGF-I concentrations were determined by radioimmunoassay (RIA) following acid-ethanol extraction as described by Lieberman et al., supra. […]

[3] = Mixing one volume of human insulin with an equal volume of IGF-I: pH, color and appearance; type: physicochemical
Source text: One volume of human insulin was mixed with an equal volume of IGF-I using the following procedure:
1) Draw air into syringe equal to the amount of human insulin for mixing. Insert the needle into the human insulin bottle and inject air. Withdraw the needle.
3) Turn the bottle and syringe upside down.
4) Make sure the tip of the needle is in the IGF-I, withdraw the correct dose of IGF-I into the syringe.
5) Before removing the needle from the bottle, check the syringe for air bubbles which reduce the amount of IGF-I in it. If bubbles are present, hold the syringe straight up and tap its sides until the bubbles float to the top. Push them out with the plunger and withdraw the correct dose.
6) Remove the needle from the bottle of IGF-I and insert it into the bottle of human insulin. Turn the bottle and syringe upside down. Hold the bottle and syringe firmly in one hand and shake gently (no shaking for regular human insulin). Make sure the tip of the needle is in the insulin, withdraw the dose of human insulin.

patients with IDDM [4] = experiment: Four-week randomized placebo-controlled double-blind study of rhIGF-I plus insulin in IDDM: glycemic control and insulin usage; type: in vivo, human
Source text: Forty-three patients (22 males and 21 females) with IDDM, ages 8-17 years, were recruited at three university-based diabetes clinics. The eligibility criteria were as follows:
The study design included a 4-week lead-in period, a 4-week treatment period, and a 2-week wash-out period (FIG. 13). Throughout the study the patients continued to receive two injections of regular and NPH insulin daily. At study entry the patients were provided with detailed instructions on home blood glucose (BG) monitoring technique. They were instructed to test BG before breakfast, lunch, dinner, and the evening snack as well as any times of symptomatic hypoglycemia. The glucose values were automatically stored in the meter (One Touch II--Lifescan Inc., Milpitas, Calif.) and electronically transferred to a personal computer at the study site during each clinic visit. During the lead-in period the patients were counseled weekly on general diabetes care and dietary management (day -28 and -14 at the clinic, day -21 and -7 over the phone). During this period the patients were provided with specific goals of glycemic control and were instructed to call the study sites as often as needed for assistance with insulin adjustment.
At the end of the lead-in period the patients were randomized to administer either rhIGF-I or placebo as an additional injection immediately before their morning insulin injections. Patients were allocated using an adaptive randomization procedure that stratified based on Tanner stage and the glycosylated hemoglobin value on day -28 of the lead-in period. A seven-day window period was allowed between day -1 of the lead-in period and day 1 of the treatment period. The subjects were admitted to the hospital the afternoon preceding day 1 of treatment and received their usual insulin dose and diet. On day 1, an IV cannula was inserted into the distal forearm or antecubital fossa. A single dose of rhIGF-I (80 μg/kg) or placebo was administered SC, followed by a SC insulin injection and breakfast. The dosing of IGF-I in the morning was for safety reasons. On day 1, the a.m. regular insulin dose was reduced by 1/3in both groups as a precaution against the development of hypoglycemia. Blood samples were obtained for future assay every 15 minutes for the next 3 hours. The patients were encouraged to be active and exercise after the initial 3-hour sampling period. Discharge from the hospital occurred on day 3 or 4 of treatment. The patients were then contacted by phone on day 5 and seen as outpatients on days 7, 14, 21, and 28 of treatment and 14 days after the cessation of dosing. The patients were instructed on dietary and diabetes management at each follow-up appointment.
For the entire four-week treatment period, the rhIGF-I and placebo doses remained constant (80 μg/kg SC q a.m.). However, the insulin doses were adjusted in an attempt to achieve the following BG targets: fasting blood glucose (FBG) 80-120 mg/dl (4.4-6.7 mmol/L) for age greater than 12 years and 80-140 mg/dL (4.4-7.8 mmol/L) for age lower than 12 years; 80-180 mg/dL (4.4-10.0 mmol/L) at any other time. A physical exam was performed on day -28 of the lead-in period, on days 1, 7, 21 and 28 of the treatment period, and on day 14 of the wash-out period. The treatment period was followed by a two-week wash-out period, during which the patients remained on insulin therapy only and dose adjustments continued as necessary to meet the glycemic goals.
The primary indices of glycemic control were: 1) HbA1 was measured at day -28 of the lead-in, as well as at days 1 and 28 of the treatment; 2) the average of the four daily home glucose monitoring values over the last ten days of the lead-in period was compared to the last ten days of treatment. The glycosylated hemoglobin was assayed by affinity chromatography (SmithKline Beecham Clinical Laboratories). The reference range was 4.4-6.1%.
Patients with at least two weeks of post randomization data were included in the analysis. […]

[5] = Acidic pH reversed-phase HPLC of centrifuged and filtered insulin, IGF-I and insulin/IGF-I mixtures; type: physicochemical
Procedure: Human insulin was gently inverted several times to mix the suspension. Approximately 1 mL of sample was withdrawn into an insulin syringe. The insulin was discharged into a centrifuge tube, then centrifuged at 3000 r.p.m. for 10 minutes. The centrifuge step was designed to remove human insulin suspension from solution. After centrifugation, the insulin sample was filtered through a 0.22 μm filter to further remove human insulin suspension. After filtration the solution was analyzed by using the acidic pH reversed-phase HPLC method described below: […]
solvent A: 0.1% trifluoroacetic acid solvent B: 0.1% trifluoroacetic acid in acetonitrile […]
column temperature: 50° C. […]
injection volume: 25 μg/injection
This solution was analyzed by the above HPLC method with no sample preparation step.
IGF-I was diluted to 1 mg/mL using IGF-I placebo. The diluted sample was analyzed by the above HPLC method.
Human insulin was mixed with IGF-I in an insulin syringe using the mixing method described above. Immediately after mixing, the mixture was injected into a centrifuge tube, then gently vortexed for 1-2 seconds. After vortexing, the mixture was centrifuged at 3000 r.p.m. for 10 minutes, then filtered through a 0.22 μm filter to remove human insulin suspension. The filtered sample was then analyzed by the acidic pH reversed-phase HPLC method described above.

STZ diabetic rats = experiment: Plasma glucose after SC injection in STZ diabetic rats (Studies 1-3); type: in vivo, rat
Procedure: Forty 7-8 week-old male SD rats were received from Charles River Laboratories and one day later injected with STZ 75 mg/kg IP. Five days later rats were bled via a tail vein, serum was obtained, and glucose concentration measured. All animals with blood glucose <200 mg/dL were not considered diabetic and were removed from the study. […] The right jugular vein was then isolated through a small SC incision and cannulated using a 0.02 inch×0.037 inch beveled silicon rubber-tipped cannula. Cannulas were flushed and checked for patency using heparin (10 U/mL) before closing wounds using 4-0 silk suture thread. Cannulas were "heparin locked" using ~50 μl heparin (100 U/mL) just before the animals were placed on a heated pad for recovery. Rats were placed in their vivarium cage when ambulatory.
The cannulas were flushed daily with fresh heparin/saline to maintain patency. Two days after cannulation, Study 1 (see below) was performed and two days later, Study 2. […]
Plasma glucose concentrations were measured using a Chem 1A serum chemistry analyzer (Miles Laboratories, Tarrytown, N.Y.). Insulin in plasma was measured by rat-specific radioimmunoassay (RIA) (Linco Research Inc., St. Charles, Mo.). Plasma IGF-I was measured by RIA after acid-ethanol extraction of the samples. […]

[6] = last 10 days of treatment period, Mean ± SEM

IGF-I: rhIGF-I (Genentech): 10 mg/mL IGF-I, 5.84 mg/mL NaCl, 9.0 mg/mL benzyl alcohol, 2.0 mg/mL polysorbate 20, 50 mM sodium acetate, pH 5.4
body weight (patients with IDDM [1]; day 28 of treatment): 55 ± 17 kg | biochemical, lipid, and thyroid profiles (patients with IDDM [1]; throughout the duration of the study): remained within normal limits | median amount of hypoglycemic episodes (patients with IDDM [1]; treatment period, BG equal to or lower than 50 mg/dL): 6 | free IGF-I level compared with corresponding Tanner stage placebo group [2]: higher | Color and Appearance Before Mixing [3]: colorless, clear | pH Before Mixing [3]: 5.4 | average number of NPH units used per kg body weight (patients with IDDM [4]; during treatment): 0.65±0.14 units used per kg body weight | Mean Plasma Glucose Concentrations, Pre-bedtime, Treatment (patients with IDDM [4]; [6]): 171 ± 51 mg/dL | Mean Plasma Glucose Concentrations, Pre-breakfast, Treatment (patients with IDDM [4]; [6]): 176 ± 39 mg/dL | Mean Plasma Glucose Concentrations, Pre-dinner, Treatment (patients with IDDM [4]; [6]): 199 ± 47 mg/dL | Mean Plasma Glucose Concentrations, Pre-lunch, Treatment (patients with IDDM [4]; [6]): 142 ± 56 mg/dL | mean reduction of HbA1 during the treatment period (patients with IDDM [4]; rhIGF-I 80 μg/kg SC q a.m. plus regular and NPH insulin, 4 weeks): 1.8±1.25% | average amount of regular insulin used (patients with IDDM [4]; treatment phase): 0.20±0.10 insulin units used daily per kg of body weight | IGF-I intact and unoxidized ([5]; IGF-I formulation alone, FIG. 1C): approximately 99% | IGF-I precipitated ([5]; immediately after mixing with HUMULIN R): ~25% | blood glucose levels after 6 hours (STZ diabetic rats; Study 1, 6 hours after SC injection): returned to basal values | blood glucose levels (STZ diabetic rats; Study 1, twenty minutes post-injection, SC, rhIGF-I 500 μg and/or NPH insulin 5U): 218.3±38.1 mg %
